# Marks after values point to notes of the source that are not given here.
# Assays:
# [1] = target: T1, human NaV1.2 channel (SCN2A, HEK293T cells) (Homo sapiens, UniProt Q99250); test: Planar patch-clamp, biophysical properties (activation, SSFI, recovery from SSFI); type: cell-based; details: change vs vehicle DMSO at IC50 concentration (CBD 18.4 μM, CBGA 14.7 μM, CBDVA 60 μM)
# T1 construct: expressed in transfected cells
# Protocol: (§1) HEK293T cells stably expressing SCN1A or SCN2A and CHO cells stably expressing SCN8A or SCN9A were maintained as previously described ([Richards et al., 2018]; [Milligan et al., 2022]).
# (§2) Patch-clamp recordings were made using a Patchliner® (Nanion Technologies, Munich, Germany) in the whole-cell configuration as previously described ([Richards et al., 2018]; [Milligan et al., 2022]). Briefly, cells were prepared in suspension at a density of 1 × 10^6-5 × 10^7 cells/mL. The external recording solution comprised (in mM): 140 NaCl, 4 KCl, 1 MgCl2, 2 CaCl2, 5 D-glucose, 10 HEPES, pH 7.4 with NaOH, ∼295 mOsm. The internal recording solution comprised (in mM): 50 CsCl, 60 CsF, 10 NaCl, 20 EGTA, 10 HEPES, pH 7.2 with CsOH, ∼285 mOsm. Medium single-hole planar NPC-16 chips with an average resistance of ∼2.5 MΩ were used. Chip and whole-cell capacitance were fully compensated, and 50% series resistance compensation applied. Recordings were acquired at 50 kHz with the low pass filter set to 10 kHz in PATCHMASTER (HEKA Instruments, NY, United States) and performed at 27°C. Offline analysis was performed using Microsoft Excel, MatLab R2019a (MathWorks) and GraphPad Prism 8 (Molecular Devices).
# (§3) Voltage protocols were used, as previously described ([Richards et al., 2018]). Briefly, to study the voltage-dependence of activation, cells were held at −120 mV and depolarized to test potentials, in 5 mV increments, between −120 mV and +50 mV for 100 ms. To study steady-state fast inactivation, cells were held at conditioning pre-pulse potentials ranging from −120 mV to +30 mV in 5 mV increments from a holding potential of −120 mV and a test pulse at 5 mV for 20 ms. Recovery from fast inactivation was studied by pre-pulsing the cells to 0 mV from a holding potential of −120 mV for 50 ms, to fully inactivate channels. The voltage was then stepped back to the holding potential for variable interpulse intervals (ipi from 0 to 39 ms in 3 ms increments). To test channel availability, the voltage was stepped to 0 mV for 50 ms.
# (§4) To examine the voltage-dependence of activation, normalized current-voltage (I-V) relationships were converted to conductance (G) using the following equation: G = I/(V−V r ) where Vr is the reversal potential for Na^+. The voltage-dependence of conductance and availability were normalized and fitted to a Boltzmann equation: G = 1/(1 + exp [(V−V 0.5)/a]), where a is the slope of the half-maximum, V is the potential of the given pulse, and V 0.5 is the potential for the half-maximal activation/inactivation. The time course of inactivation was fitted to a single exponential function I/Imax = I0+A*exp (-t-t0/τ)+C, where I0 is the non-inactivating component, Imax is the peak current, t is time, and A is the component for the time constant τ. Time constants were plotted against voltage and the data fitted with a decaying exponential equation Y = span*exp (−K*x)+plateau, where span is the starting point of the curve, K is the decay factor, plateau is the value the curve decays to, and x is time. To measure recovery from inactivation, normalized currents were plotted against ipi and data fitted with equation I/I max = 1-exp/(rc + x), where I max is maximal current; rc recovery rate constant; x is time. Peak current (I) was plotted as fractional recovery against the recovery period by normalizing to the maximum current (Imax) during the conditioning potentials.
# [2] = target: T2, human NaV1.7 channel (SCN9A, CHO cells) (Homo sapiens, UniProt Q15858); test: as above; type: cell-based; details: change vs vehicle DMSO at IC50 concentration (CBD 11.9 μM, CBGA 16.4 μM, CBDVA 60 μM)
# T2 construct: expressed in transfected cells
# Protocol: as §1, §2, §3, §4
# [3] = target: T3, human NaV1.1 channel (SCN1A, HEK293T cells) (Homo sapiens, UniProt P35498); test: as above; type: cell-based; details: change vs vehicle DMSO at IC50 concentration (CBD 18.5 μM, CBGA 13.6 μM, CBDVA 50 μM)
# T3 construct: expressed in transfected cells
# Protocol: as §1, §2, §3, §4
# [4] = target: T4, human NaV1.6 channel (SCN8A, CHO cells) (Homo sapiens, UniProt Q9UQD0); test: as above; type: cell-based; details: change vs vehicle DMSO at IC50 concentration (CBD 16.6 μM, CBGA 12.0 μM, CBDVA 24.1 μM)
# T4 construct: expressed in transfected cells
# Protocol: as §1, §2, §3, §4
# [5] = target: T1, human NaV1.2 channel (SCN2A, HEK293T cells); test: Planar patch-clamp, inhibition of peak sodium current (IC50 protocol); type: cell-based; details: mean ± SEM
# Protocol: as §1, §2
# (§5) To determine half-maximal inhibitory concentrations (IC50), cells were held at −80 mV, stepped to −120 mV for 200 ms followed by 50 ms test depolarization to 0 mV every 2 s for 30 s in the presence of vehicle control (DMSO). The cells were then exposed to an individual phytocannabinoid (CBD, CBGA, CBDVA, CBG, CBCA or CBC) at concentrations between 0.1 and 100 μM, sequentially for 5 min. Currents for individual cells were averaged over 24 s periods directly before application and following a 5 min exposure of compound. Leak subtraction was applied before normalization of current amplitude. Normalized mean data were fit to the Hill equation.
# [6] = target: T3, human NaV1.1 channel (SCN1A, HEK293T cells); test: as above; type: cell-based; details: mean ± SEM
# Protocol: as §1, §2, §5
# [7] = target: T4, human NaV1.6 channel (SCN8A, CHO cells); test: as above; type: cell-based; details: mean ± SEM
# Protocol: as §1, §2, §5
# [8] = system: Scn1a+/− mouse model of DS; parameters: method as in Anderson et al., 2021a; Anderson et al., 2021b; details: Scn1a+/− mice, ref Anderson et al., 2021a, 2021b; cited from earlier work
# T1 sequence (Q99250 whole entry): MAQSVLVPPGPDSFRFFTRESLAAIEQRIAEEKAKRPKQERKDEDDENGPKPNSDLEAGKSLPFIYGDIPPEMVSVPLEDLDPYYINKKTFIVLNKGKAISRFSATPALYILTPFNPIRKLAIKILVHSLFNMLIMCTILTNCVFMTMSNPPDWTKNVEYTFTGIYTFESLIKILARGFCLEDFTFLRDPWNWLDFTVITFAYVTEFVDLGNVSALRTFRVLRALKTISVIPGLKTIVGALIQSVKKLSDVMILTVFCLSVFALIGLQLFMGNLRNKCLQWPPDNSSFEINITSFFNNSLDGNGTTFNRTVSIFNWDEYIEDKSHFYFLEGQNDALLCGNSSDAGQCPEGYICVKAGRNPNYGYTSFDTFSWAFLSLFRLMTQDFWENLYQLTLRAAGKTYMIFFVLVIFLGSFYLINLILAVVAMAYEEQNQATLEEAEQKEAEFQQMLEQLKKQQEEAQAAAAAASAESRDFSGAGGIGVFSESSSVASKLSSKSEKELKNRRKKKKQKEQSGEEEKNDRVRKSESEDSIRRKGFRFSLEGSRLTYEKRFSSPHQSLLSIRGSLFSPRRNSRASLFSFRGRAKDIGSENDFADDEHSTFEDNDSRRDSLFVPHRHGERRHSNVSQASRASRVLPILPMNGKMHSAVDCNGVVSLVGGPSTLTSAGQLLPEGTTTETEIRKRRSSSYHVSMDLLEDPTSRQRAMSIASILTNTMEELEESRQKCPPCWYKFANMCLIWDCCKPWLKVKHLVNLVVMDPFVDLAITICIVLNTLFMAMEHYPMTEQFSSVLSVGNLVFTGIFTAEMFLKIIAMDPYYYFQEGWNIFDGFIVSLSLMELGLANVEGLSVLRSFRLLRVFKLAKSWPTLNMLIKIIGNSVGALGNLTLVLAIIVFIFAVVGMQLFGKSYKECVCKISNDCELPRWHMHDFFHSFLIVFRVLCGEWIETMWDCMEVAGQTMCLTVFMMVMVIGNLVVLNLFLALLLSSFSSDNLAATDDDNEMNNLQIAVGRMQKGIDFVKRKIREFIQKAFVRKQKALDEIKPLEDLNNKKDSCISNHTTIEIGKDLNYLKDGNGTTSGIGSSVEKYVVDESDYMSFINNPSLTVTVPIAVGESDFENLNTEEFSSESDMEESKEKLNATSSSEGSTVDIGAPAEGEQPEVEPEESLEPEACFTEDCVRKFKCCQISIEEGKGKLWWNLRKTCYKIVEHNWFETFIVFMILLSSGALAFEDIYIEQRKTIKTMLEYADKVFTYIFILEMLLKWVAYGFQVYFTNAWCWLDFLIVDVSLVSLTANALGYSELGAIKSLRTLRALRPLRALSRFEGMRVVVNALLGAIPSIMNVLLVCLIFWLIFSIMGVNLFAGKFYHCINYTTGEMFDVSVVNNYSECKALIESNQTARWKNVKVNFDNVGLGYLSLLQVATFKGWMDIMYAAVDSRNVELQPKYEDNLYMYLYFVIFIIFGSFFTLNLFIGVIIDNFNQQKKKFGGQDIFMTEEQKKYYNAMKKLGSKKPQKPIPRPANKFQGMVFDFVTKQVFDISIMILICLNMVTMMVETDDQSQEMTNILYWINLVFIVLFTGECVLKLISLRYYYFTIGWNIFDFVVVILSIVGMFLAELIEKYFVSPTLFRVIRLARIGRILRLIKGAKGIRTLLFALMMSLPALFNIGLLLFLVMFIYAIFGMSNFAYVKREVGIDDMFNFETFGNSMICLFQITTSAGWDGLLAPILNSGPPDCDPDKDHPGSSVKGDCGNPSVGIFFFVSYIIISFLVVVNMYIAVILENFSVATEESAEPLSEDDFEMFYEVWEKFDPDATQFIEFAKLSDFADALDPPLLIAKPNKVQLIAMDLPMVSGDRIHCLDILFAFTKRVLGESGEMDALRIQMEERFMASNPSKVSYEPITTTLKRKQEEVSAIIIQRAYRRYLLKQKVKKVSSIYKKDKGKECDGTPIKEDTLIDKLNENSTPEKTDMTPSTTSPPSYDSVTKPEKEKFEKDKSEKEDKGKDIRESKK
# T4 sequence (Q9UQD0 whole entry): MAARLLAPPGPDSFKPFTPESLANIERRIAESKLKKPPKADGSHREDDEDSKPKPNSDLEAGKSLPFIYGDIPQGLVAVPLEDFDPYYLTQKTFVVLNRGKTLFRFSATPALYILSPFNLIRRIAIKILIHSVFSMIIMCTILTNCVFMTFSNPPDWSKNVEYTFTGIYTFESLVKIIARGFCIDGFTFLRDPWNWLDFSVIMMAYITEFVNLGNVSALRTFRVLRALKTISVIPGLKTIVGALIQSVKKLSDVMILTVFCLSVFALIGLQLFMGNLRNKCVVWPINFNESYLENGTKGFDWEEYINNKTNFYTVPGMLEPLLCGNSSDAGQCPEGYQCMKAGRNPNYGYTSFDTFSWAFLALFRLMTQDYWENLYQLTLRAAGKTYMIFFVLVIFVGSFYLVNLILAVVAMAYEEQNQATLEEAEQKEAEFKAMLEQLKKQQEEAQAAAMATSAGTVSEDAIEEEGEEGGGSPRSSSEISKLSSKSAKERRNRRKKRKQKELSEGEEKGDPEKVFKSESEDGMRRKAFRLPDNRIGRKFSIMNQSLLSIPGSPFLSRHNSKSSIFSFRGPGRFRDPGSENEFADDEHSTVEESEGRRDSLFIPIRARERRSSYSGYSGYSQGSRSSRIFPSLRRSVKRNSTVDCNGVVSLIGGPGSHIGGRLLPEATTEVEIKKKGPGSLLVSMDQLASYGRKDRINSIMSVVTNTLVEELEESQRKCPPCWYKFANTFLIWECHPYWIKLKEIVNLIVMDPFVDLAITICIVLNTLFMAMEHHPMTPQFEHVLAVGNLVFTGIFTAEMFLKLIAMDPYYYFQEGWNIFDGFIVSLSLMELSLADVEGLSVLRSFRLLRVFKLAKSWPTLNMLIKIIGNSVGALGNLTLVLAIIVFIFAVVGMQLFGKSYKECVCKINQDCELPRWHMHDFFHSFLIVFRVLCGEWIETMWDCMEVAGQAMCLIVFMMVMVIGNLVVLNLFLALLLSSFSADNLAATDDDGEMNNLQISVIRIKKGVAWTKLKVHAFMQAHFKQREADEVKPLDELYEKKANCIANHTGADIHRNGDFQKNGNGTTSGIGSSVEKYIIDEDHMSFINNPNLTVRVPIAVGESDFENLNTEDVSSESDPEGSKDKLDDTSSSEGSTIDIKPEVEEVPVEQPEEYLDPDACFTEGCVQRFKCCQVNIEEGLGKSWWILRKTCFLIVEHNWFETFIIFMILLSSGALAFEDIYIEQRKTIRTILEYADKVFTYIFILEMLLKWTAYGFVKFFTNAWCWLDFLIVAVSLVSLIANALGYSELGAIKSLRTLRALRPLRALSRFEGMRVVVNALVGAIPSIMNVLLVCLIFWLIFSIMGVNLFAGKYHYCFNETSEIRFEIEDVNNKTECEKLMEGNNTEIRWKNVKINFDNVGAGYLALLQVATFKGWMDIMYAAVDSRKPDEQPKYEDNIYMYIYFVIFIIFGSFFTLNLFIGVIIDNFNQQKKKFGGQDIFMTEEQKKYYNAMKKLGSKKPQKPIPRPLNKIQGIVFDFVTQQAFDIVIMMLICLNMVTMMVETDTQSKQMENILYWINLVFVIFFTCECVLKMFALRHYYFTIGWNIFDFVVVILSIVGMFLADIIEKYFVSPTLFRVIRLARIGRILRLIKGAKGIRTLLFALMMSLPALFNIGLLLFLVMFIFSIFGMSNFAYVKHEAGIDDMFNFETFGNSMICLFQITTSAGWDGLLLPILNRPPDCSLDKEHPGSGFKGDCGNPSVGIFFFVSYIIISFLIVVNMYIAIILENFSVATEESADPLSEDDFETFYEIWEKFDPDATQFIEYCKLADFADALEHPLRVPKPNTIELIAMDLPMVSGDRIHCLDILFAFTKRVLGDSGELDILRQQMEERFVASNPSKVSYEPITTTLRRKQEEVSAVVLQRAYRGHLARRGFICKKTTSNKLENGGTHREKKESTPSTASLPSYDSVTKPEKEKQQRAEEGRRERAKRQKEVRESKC
structure (smiles),measurement,setting,value
"CCCCCc1cc(O)c(C/C=C(\C)CCC=C(C)C)c(O)c1C(=O)O [CBGA, cannabigerolic acid]",Inactivation △ V0.5 inact,[1]; SSFI,−3.0 ± 1.5 mV
same,Inactivation △ slope factor,[1]; SSFI,2.5 ± 0.8**
same,Activation △ Slope factor,[1],1.9 ± 1.0
same,Activation △ V0.5 act,[1],1.8 ± 2.3 mV
same,Inactivation △ τinact SSFI at 5 mV,[1],0.08 ± 0.1
same,Inactivation △ V0.5 inact,[2]; SSFI,−5.5 ± 2.1* mV
same,Inactivation △ slope factor,[2]; SSFI,1.3 ± 0.5*
same,Activation △ Slope factor,[2],1.1 ± 0.2***
same,Activation △ V0.5 act,[2],4.6 ± 1.7* mV
same,Inactivation △ τinact SSFI at 5 mV,[2],0.3 ± 0.06***
same,Inactivation △ V0.5 inact,[3]; SSFI,1.0 ± 1.29 mV
same,Activation △ Slope factor,[3],3.1 ± 1.7
same,Activation △ V0.5 act,[3],3.9 ± 1.2** mV
same,Inactivation △ τinact SSFI at 5 mV,[3],0.4 ± 0.1*
same,Inactivation △ V0.5 inact,[4]; SSFI,−0.5 ± 2.4 mV
same,Inactivation △ slope factor,[4]; SSFI,1.1 ± 0.2**
same,Activation △ Slope factor,[4],−0.4 ± 0.3
same,Activation △ V0.5 act,[4],0.1 ± 1.6 mV
same,Inactivation △ τinact SSFI at 5 mV,[4],0.2 ± 0.2
same,Slope (Hill slope coefficient),[5]; NaV1.2 concentration-response,2.2 ± 0.4
same,IC50,"[5]; NaV1.2 peak current, 0.1–100 µM, 5 min exposure",14.7 ± 1.1 µM
same,Slope (Hill slope coefficient),[6]; NaV1.1 concentration-response,2.6 ± 0.5
same,IC50,"[6]; NaV1.1 peak current, 0.1–100 µM, 5 min exposure",13.6 ± 1.1 µM
same,Slope (Hill slope coefficient),[7]; NaV1.6 concentration-response,2.3 ± 0.6
same,IC50,"[7]; NaV1.6 peak current, 0.1–100 µM, 5 min exposure",12 ± 1.2 µM
same,Effect against hyperthermia-induced seizures,[8],anti-convulsant properties

# Reference: article PMC9986306, “Beyond CBD: Inhibitory effects of lesser studied phytocannabinoids on human voltage-gated sodium channels” (Frontiers in Physiology, 2023)
